The test system of test [1] is H4 human neuroglioma cells over-expressing the wild-type human APP695. The test can be described thus: sAPPβ Whole-Cell Assay (in vitro sAPPb assay, ELISA). It is filed as cell-based. As to conditions: 18 hours, geometric mean of 2-7 determinations (values marked b: single determination). On the procedure:
Whole Cell-Free Assay (In Vitro sAPPb Assay):
H4 human neuroglioma cells over-expressing the wild-type human APP695 are treated for 18 hours with compound in a final concentration 1% DMSO. sAPPβ levels are measured using TMB-ELISA with capture APP N-terminal antibody (Affinity BioReagents, OMA1-03132), wild-type sAPPβ specific reporter p192 (Elan), and tertiary anti rabbit-HRP (GE Healthcare).
A general note: ELISA stands for enzyme-linked immunosorbent assay.

The target in another test is BACE1 enzyme (Homo sapiens (Human), UniProt P56817). Kind of test: BACE1 Cell-Free Assay (fluorescence polarization, synthetic APP substrate). Format: biochemical. As to conditions: geometric mean of 2-7 determinations (values marked b: single determination). An excerpt: This assay measures the inhibition of the beta-secretase enzyme as it cleaves a non-native peptide.
Chain of BACE1 enzyme (P56817 46-457): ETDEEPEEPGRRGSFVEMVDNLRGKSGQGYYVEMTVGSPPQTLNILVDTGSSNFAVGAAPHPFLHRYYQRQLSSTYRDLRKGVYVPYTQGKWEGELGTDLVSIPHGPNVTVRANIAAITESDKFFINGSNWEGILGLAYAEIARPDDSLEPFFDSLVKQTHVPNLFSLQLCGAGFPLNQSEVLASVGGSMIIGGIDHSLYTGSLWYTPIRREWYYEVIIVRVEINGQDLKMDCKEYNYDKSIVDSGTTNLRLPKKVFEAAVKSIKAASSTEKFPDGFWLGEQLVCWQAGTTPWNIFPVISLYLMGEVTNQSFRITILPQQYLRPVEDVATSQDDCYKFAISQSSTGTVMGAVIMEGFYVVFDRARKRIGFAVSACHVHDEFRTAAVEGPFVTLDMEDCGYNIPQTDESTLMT
A synthetic APP substrate that can be cleaved by beta-secretase having N-terminal biotin and made fluorescent by the covalent attachment of Oregon Green at the Cys residue is used to assay beta-secretase activity in the presence or absence of the inhibitory compounds. […] The BACE1 enzyme is affinity purified material from conditioned media of CHO-K1 cells that have been transfected with a soluble BACE construct (BACE1deltaTM96His). Compounds are incubated in a ½ log dose response curve from a top concentration of 100 μM with BACE1 enzyme and the biotinylated fluorescent peptide in 384-well black plates (Thermo Scientific #4318). BACE1 is at a final concentration of 0.1 nM with a final concentration of peptide substrate of 150 nM in a reaction volume of 30 μL assay buffer (100 mM sodium acetate, pH 4.5 (brought to pH with acetic acid), and 0.001% Tween-20). Plates are covered and incubated for 3 hours at 37° C. The reaction is stopped with the addition of 30 μL of 1.5 μM Streptavidin (Pierce, #21125). After a 10 minute incubation at room temperature, plates are read on a PerkinElmer Envision for fluorescent polarization (Ex485 nm/Em530 nm). The activity of the beta-secretase enzyme is detected by changes in the fluorescence polarization that occur when the substrate is cleaved by the enzyme.
In general terms: In fluorescence polarisation assays a small probe gives low polarisation when free and higher when bound to something large.

The target of another test is BACE2 enzyme (Homo sapiens (Human), UniProt Q9Y5Z0). The test can be described thus: BACE2 Cell-free Assay (fluorescence polarization, synthetic substrate). Format: biochemical. The conditions noted are these: single determination. On the procedure:
This assay measures the inhibition of the BACE2 enzyme as it cleaves a non-native peptide. A synthetic substrate that can be cleaved by BACE2 having N-terminal biotin and made fluorescent by the covalent attachment of Oregon Green at the Cys residue is used to assay BACE2 activity in the presence or absence of the inhibitory compounds. The substrate is Biotin-[…]-C(Oregon green)-KK-OH. The BACE2 enzyme is available from Enzo Life Sciences (Cat # BML-SE550). Compounds are incubated in a ½ log dose response curve from a top concentration of 100 μM with BACE2 enzyme and the biotinylated fluorescent peptide in 384-well black plates (Thermo Scientific #4318). BACE2 is at a final concentration of 2.5 nM with a final concentration of peptide substrate of 150 nM in a reaction volume of 30 μL assay buffer (100 mM Sodium Acetate, pH 4.5 (brought to pH with acetic acid), and 0.001% Tween-20). Plates are covered and incubated for 3 hours at 37° C. The reaction is stopped with the addition of 30 μL of 1.5 μM Streptavidin (Pierce, #21125). After a 10 minute incubation at room temperature, plates are read on a PerkinElmer Envision for fluorescent polarization (Ex485 nm/Em530 nm). The activity of the beta-secretase enzyme is detected by changes in the fluorescence polarization that occur when the substrate is cleaved by the enzyme.

Counter-ions that a name gives are not always drawn. Bounds are passed on as bounds.

Chain of BACE2 enzyme (Q9Y5Z0 63-518): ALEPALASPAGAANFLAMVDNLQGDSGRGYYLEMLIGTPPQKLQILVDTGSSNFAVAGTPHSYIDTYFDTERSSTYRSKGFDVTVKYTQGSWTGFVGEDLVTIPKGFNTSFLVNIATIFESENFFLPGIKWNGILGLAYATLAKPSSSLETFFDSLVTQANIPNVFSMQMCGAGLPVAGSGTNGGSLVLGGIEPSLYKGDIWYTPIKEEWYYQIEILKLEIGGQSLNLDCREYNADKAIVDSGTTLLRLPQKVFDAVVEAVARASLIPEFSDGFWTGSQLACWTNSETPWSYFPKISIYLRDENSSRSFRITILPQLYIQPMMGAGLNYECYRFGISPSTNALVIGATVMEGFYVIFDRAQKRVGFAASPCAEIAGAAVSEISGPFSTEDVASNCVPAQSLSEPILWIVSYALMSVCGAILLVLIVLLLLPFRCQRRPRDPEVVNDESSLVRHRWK

As for “(4aR,6R,8aS)-8a-(2,4-Difluorophenyl)-6-(3-methyl-1,2,4-oxadiazol-5-yl)-4,4-a,5,6,8,8a-hexahydropyrano[3,4-][1,3]thiazin-2-amine, trifluoroacetate salt [Example 13]”, the values for the IC50 (in test [1]; at BACE1 enzyme; at BACE2 enzyme) were 34 nM, 439 nM and 208 nM, respectively.
In the same order, the values of `Cc1cnc([C@H]2C[C@H]3CSC(N)=N[C@@]3(c3ccc(F)cc3F)CO2)o1` [Example 5, (4aR,6R,8aS)-8a-(2,4-Difluorophenyl)-6-(5-methyl-1,3-oxazol-2-yl)-4,4-a,5,6,8,8a-hexahydropyrano[3,4-d][1,3]thiazin-2-amine] are 23 nM, 473 nM and 1150 nM.
For `Cc1coc([C@H]2C[C@H]3CSC(N)=N[C@@]3(c3ccc(F)cc3F)CO2)n1` [Example 4, (4aR,6R,8aS)-8a-(2,4-Difluorophenyl)-6-(4-methyl-1,3-oxazol-2-yl)-4,4-a,5,6,8,8a-hexahydropyrano[3,4-][1,3]thiazin-2-amine], the 50% inhibitory concentration (IC50) (in general, the concentration that inhibits the measured activity by half) in test [1] was 4 nM; against BACE1 enzyme, 84 nM; against BACE2 enzyme, 273 nM.
Regarding `NC1=N[C@@]2(c3ccc(F)cc3F)CO[C@@H](c3ccn(C4CC4)n3)C[C@H]2CS1` [Example 19, (4aR,6R,8aS)-6-(1-cyclopropyl-1H-pyrazol-3-yl)-8a-(2,4-difluorophenyl)-4,4a,5,6,8,8a-hexahydropyrano[3,4-d][1,3]thiazin-2-amine], at BACE1 enzyme, the midpoint of inhibition, the IC50, lay at 444 nM.
Take `Cc1nc([C@H]2C[C@H]3CSC(N)=N[C@@]3(c3ccc(F)cc3F)CO2)co1` [Example 11, (4aR,6R,8aS)-8a-(2,4-Difluorophenyl)-6-(2-methyl-1,3-oxazol-4-yl)-4,4-a,5,6,8,8a-hexahydropyrano[3,4-d][1,3]thiazin-2-amine, hydrochloride salt]: the 50% inhibitory concentration (IC50) was 34 nM in test [1], 316 nM on BACE1 enzyme and 2020 nM on BACE2 enzyme.
In the same order, the values of `NC1=N[C@@]2(c3ccc(F)cc3F)CO[C@@H](c3ncco3)C[C@H]2CS1` [Example 1, (4aR,6R,8aS)-8a-(2,4-Difluorophenyl)-6-(1,3-oxazol-2-yl)-4,4-a,5,6,8,8a-hexahydropyrano[3,4-][1,3]thiazin-2-amine] are 32 nM, 511 nM and 619 nM.
In the same order, the values of `Cn1ccc([C@H]2C[C@H]3CSC(N)=N[C@@]3(c3ccc(F)cc3F)CO2)n1` [Example 2, (4aR,6R,8aS)-8a-(2,4-Difluorophenyl)-6-(1-methyl-1H-pyrazol-3-yl)-4,4-a,5,6,8,8a-hexahydropyrano[3,4-][1,3]thiazin-2-amine] are 17 nM, 183 nM and 4740 nM.
In the same order, the values of `C[C@H]1SC(N)=N[C@@]2(c3ccc(F)cc3F)CO[C@@H](c3ncco3)C[C@@H]12` [Example 6, (4R,4aR,6R,8aS)-8a-(2,4-Difluorophenyl)-4-methyl-6-(1,3-oxazol-2-yl)-4,4-a,5,6,8,8a-hexahydropyrano[3,4-][1,3]thiazin-2-amine] are 32 nM, 198 nM and 2370 nM.
Take `Cc1ccnc([C@H]2C[C@H]3CSC(N)=N[C@@]3(c3ccc(F)cc3F)CO2)n1` [Example 12, (4aR,6R,8aS)-8a-(2,4-Difluorophenyl)-6-(4-methylpyrimidin-2-yl)-4,4-a,5,6,8,8a-hexahydropyrano[3,4-][1,3]thiazin-2-amine]: the half-maximal inhibitory concentration (IC50) came out at 50 nM in test [1] and 1470 nM against BACE1 enzyme.
“(4aR,6R,8aS)-8a-(2,4-Difluorophenyl)-6-(5-methyl-1,3,4-oxadiazol-2-yl)-4,4-a,5,6,8,8a-hexahydropyrano[3,4-d][1,3]thiazin-2-amine [Example 17]”: the 50% inhibitory concentration (IC50) in test [1] is 10 nM; against BACE1 enzyme, 301 nM; on BACE2 enzyme, 5560 nM.
For `Cc1nccc([C@H]2C[C@H]3CSC(N)=N[C@@]3(c3ccc(F)cc3F)CO2)n1` [Example 9, (4aR,6R,8aS)-8a-(2,4-Difluorophenyl)-6-(2-methylpyrimidin-4-yl)-4,4-a,5,6,8,8a-hexahydropyrano[3,4-][1,3]thiazin-2-amine], the IC50 was 28 nM in test [1], 583 nM against BACE1 enzyme and greater than 100000 nM on BACE2 enzyme.
As to `Cc1cnc([C@H]2C[C@H]3CSC(N)=N[C@@]3(c3ccc(F)cc3F)CO2)nc1` [Example 24, (4aR,6R,8aS)-8a-(2,4-difluorophenyl)-6-(5-methylpyrimidin-2-yl)-4,4a,5,6,8,8a-hexahydropyrano[3,4-d][1,3]thiazin-2-amine, trifluoroacetate salt], the IC50 in test [1] (Homo sapiens) was found to be 24 nM; on BACE1 enzyme, 688 nM; against BACE2 enzyme, 1080 nM.
`Cn1nccc1[C@H]1C[C@H]2CSC(N)=N[C@@]2(c2ccc(F)cc2F)CO1` [Example 3, (4aR,6R,8aS)-8a-(2,4-Difluorophenyl)-6-(1-methyl-1H-pyrazol-5-yl)-4,4-a,5,6,8,8a-hexahydropyrano[3,4-d][1,3]thiazin-2-amine]: the half-inhibitory concentration (IC50) in test [1] turned out to be 636 nM; on BACE1 enzyme, 7780 nM.
In the case of `Cc1coc([C@H]2C[C@H]3[C@@H](C)SC(N)=N[C@@]3(c3ccc(F)cc3F)CO2)n1` [Example 22, (4R,4aR,6R,8aS)-8a-(2,4-difluorophenyl)-4-methyl-6-(4-methyl-1,3-oxazol-2-yl)-4,4a,5,6,8,8a-hexahydropyrano[3,4-d][1,3]thiazin-2-amine], the figures for the 50% inhibitory concentration (IC50) (in test [1] (Homo sapiens); at BACE2 enzyme) were 6 nM and 1400 nM, respectively.
`Cn1cc([C@H]2C[C@H]3CSC(N)=N[C@@]3(c3ccc(F)cc3F)CO2)cn1` [Example 7, (4aR,6R,8aS)-8a-(2,4-Difluorophenyl)-6-(1-methyl-1H-pyrazol-4-yl)-4,4-a,5,6,8,8a-hexahydropyrano[3,4-][1,3]thiazin-2-amine]: the half-maximal inhibitory concentration (IC50) in test [1] came to 5 nM; at BACE2 enzyme, 185 nM.
With `Cc1nc([C@H]2C[C@H]3CSC(N)=N[C@@]3(c3ccc(F)cc3F)CO2)oc1C` [Example 15, (4aR,6R,8aS)-8a-(2,4-Difluorophenyl)-6-(4,5-dimethyl-1,3-oxazol-2-yl)-4,4-a,5,6,8,8a-hexahydropyrano[3,4-d][1,3]thiazin-2-amine], the results for the IC50 (in test [1]; at BACE1 enzyme; against BACE2 enzyme) were 7 nM, 112 nM and 2820 nM, respectively.
As for `NC1=N[C@@]2(c3ccc(F)cc3F)CO[C@@H](c3nnco3)C[C@H]2CS1` [Example 14, (4aR,6R,8aS)-8a-(2,4-Difluorophenyl)-6-(1,3,4-oxadiazol-2-yl)-4,4-a,5,6,8,8a-hexahydropyrano[3,4-][1,3]thiazin-2-amine], the 50% inhibitory concentration (IC50) was determined as 196 nM in test [1] and 2210 nM against BACE1 enzyme.
`Cc1csc([C@H]2C[C@H]3CSC(N)=N[C@@]3(c3ccc(F)cc3F)CO2)n1` [Example 8, (4aR,6R,8aS)-8a-(2,4-Difluorophenyl)-6-(4-methyl-1,3-thiazol-2-yl)-4,4-a,5,6,8,8a-hexahydropyrano[3,4-][1,3]thiazin-2-amine]: the IC50 in test [1] is 27 nM; on BACE1 enzyme, 260 nM; at BACE2 enzyme, 9720 nM.
In the case of `Cc1cc([C@H]2C[C@H]3CSC(N)=N[C@@]3(c3ccc(F)cc3F)CO2)on1` [Example 16, (4aR,6R,8aS)-8a-(2,4-Difluorophenyl)-6-(3-methyl-1,2-oxazol-5-yl)-4,4-a,5,6,8,8a-hexahydropyrano[3,4-][1,3]thiazin-2-amine], the IC50 in test [1] is 3 nM; at BACE1 enzyme it was 59 nM.
With `NC1=N[C@@]2(c3ccc(F)cc3F)CO[C@@H](c3ncc(F)cn3)C[C@H]2CS1` [Example 23, (4aR,6R,8aS)-8a-(2,4-difluorophenyl)-6-(5-fluoropyrimidin-2-yl)-4,4a,5,6,8,8a-hexahydropyrano[3,4-d][1,3]thiazin-2-amine], the IC50 in test [1] (Homo sapiens) turned out to be 10 nM; against BACE1 enzyme, 161 nM.
